{
  "source": "the NIST ThermoML archive (doi:10.1016/j.jct.2013.12.033)",
  "conditions": "Liquid, Closed cell (Static) method",
  "note": "Numbers after ± are expanded uncertainties.",
  "data": [
    {"smiles": "c1ccsc1", "note": "[thiophene]", "values": [
      {"measurement": "vapor or sublimation pressure", "setting": "273.15 K", "value": "2.778 ± 0.17", "unit": "kPa"},
      {"measurement": "vapor or sublimation pressure", "setting": "283.15 K", "value": "4.893 ± 0.29", "unit": "kPa"},
      {"measurement": "vapor or sublimation pressure", "setting": "293.15 K", "value": "8.217 ± 0.49", "unit": "kPa"},
      {"measurement": "vapor or sublimation pressure", "setting": "303.15 K", "value": "13.23 ± 0.8", "unit": "kPa"},
      {"measurement": "vapor or sublimation pressure", "setting": "313.15 K", "value": "20.52 ± 1.2", "unit": "kPa"},
      {"measurement": "vapor or sublimation pressure", "setting": "323.15 K", "value": "30.8 ± 1.9", "unit": "kPa"},
      {"measurement": "vapor or sublimation pressure", "setting": "333.15 K", "value": "44.88 ± 2.7", "unit": "kPa"},
      {"measurement": "vapor or sublimation pressure", "setting": "343.15 K", "value": "63.71 ± 3.8", "unit": "kPa"},
      {"measurement": "vapor or sublimation pressure", "setting": "353.15 K", "value": "88.33 ± 5.3", "unit": "kPa"},
      {"measurement": "vapor or sublimation pressure", "setting": "363.15 K", "value": "119.9 ± 7.2", "unit": "kPa"}
    ]},
    {"smiles": "c1ccncc1", "note": "[pyridine]", "values": [
      {"measurement": "vapor or sublimation pressure", "setting": "273.15 K", "value": "0.5993 ± 0.037", "unit": "kPa"},
      {"measurement": "vapor or sublimation pressure", "setting": "283.15 K", "value": "1.136 ± 0.071", "unit": "kPa"},
      {"measurement": "vapor or sublimation pressure", "setting": "293.15 K", "value": "2.049 ± 0.12", "unit": "kPa"},
      {"measurement": "vapor or sublimation pressure", "setting": "303.15 K", "value": "3.535 ± 0.21", "unit": "kPa"},
      {"measurement": "vapor or sublimation pressure", "setting": "313.15 K", "value": "5.863 ± 0.35", "unit": "kPa"},
      {"measurement": "vapor or sublimation pressure", "setting": "323.15 K", "value": "9.383 ± 0.56", "unit": "kPa"},
      {"measurement": "vapor or sublimation pressure", "setting": "333.15 K", "value": "14.55 ± 0.88", "unit": "kPa"},
      {"measurement": "vapor or sublimation pressure", "setting": "343.15 K", "value": "21.92 ± 1.3", "unit": "kPa"},
      {"measurement": "vapor or sublimation pressure", "setting": "353.15 K", "value": "32.17 ± 1.9", "unit": "kPa"},
      {"measurement": "vapor or sublimation pressure", "setting": "363.15 K", "value": "46.13 ± 2.8", "unit": "kPa"}
    ]}
  ]
}
